Patent publication US20180201592A1, “2-AMINO-1,3,4-THIADIAZINE AND 2-AMINO-1,3,4-OXADIAZINE BASED ANTIFUNGAL AGENTS” (F2G Limited, priority 2015, published 2018)

Experiments:
Details in all cases: banded MIC grade
[1] = test system: Aspergillus flavus; experiment: Minimum inhibitory concentration, YAG medium; format: cell-based
Protocol: (§1) The compound was dissolved in DMSO to give a solution containing 5 mg/mL. Tubes were stored at −20° C. until required. On the day of testing thawed solutions were vortex mixed to ensure homogeneity. 30 μL of solution was removed and added to 570 μL of sterile water in a separate sterile Eppendorf. The thoroughly mixed solution was used to prepare a series of doubling dilutions in water, in a deep well plate. Thirteen replicate plates were prepared using a Minitrak by aspirating 20 μL from each well into eleven clear polystyrene 96 well plates. Spores of Aspergillus spp. […] All plates were incubated for 24 hrs at 35° C. Growth was assessed by monitoring the optical density at 485 nm for each well. […] MICs are recorded as mg/L.

[2] = test system: Aspergillus terreus; experiment: Minimum inhibitory concentration, YAG medium; format: cell-based
Protocol: as §1

[3] = test system: Aspergillus niger; experiment: Minimum inhibitory concentration, YAG medium; format: cell-based
Protocol: as §1

[4] = test system: Aspergillus fumigatus; experiment: Minimum inhibitory concentration, YAG medium; format: cell-based
Protocol: (§2) Between 1 and 5 mgs of compound were accurately weighed out into a sterile Eppendorf tube. The compound was dissolved in DMSO to give a solution containing 5 mg/mL. Tubes were stored at −20° C. until required.
(§3) On the day of testing thawed solutions were vortex mixed to ensure homogeneity. 30 μL of solution was removed and added to 570 μL of sterile water in a separate sterile Eppendorf. The thoroughly mixed solution was used to prepare a series of doubling dilutions in water, in a deep well plate. Thirteen replicate plates were prepared using a Minitrak by aspirating 20 μL from each well into eleven clear polystyrene 96 well plates.
(§4) Spores of Aspergillus spp. (Aspergillus fumigatus [two strains], Aspergillus terreus [two strains], Aspergillus niger and Aspergillus flavus) were harvested from cultures grown on Sabarauds agar for 5 days, and resuspended in PBS/Tween 80 to approx 1×10^7 cfu/mL. Each organism suspension was diluted in YAG medium (1% glucose, 1% ammonium chloride and 0.5% yeast extract) to 0.5-2×10^4cfu/mL. 80 μL of an organism suspension was added to each well of the plate containing drug dilutions.
(§5) This typically produced MIC plates with a drug range 50-0.05 mg/L and organism inocula of 1-2×10^4 cfu/mL for Aspergillus spp. All plates were incubated for 24 hrs at 35° C. Growth was assessed by monitoring the optical density at 485 nm for each well. The MIC of a compound is the lowest drug concentration that inhibits growth of an organism by >70% compared with a drug free control. MICs are recorded as mg/L. In cases where the MIC of an organism is […] the MIC is repeated using a concentration range of 0.5-0.0005 mg/L.

[5] = test system: A. fumigatus 210; experiment: Minimum inhibitory concentration, YAG medium; format: cell-based, Aspergillus fumigatus
Protocol: as §2, §3, §4, §5

[6] = test system: A. terreus 49; experiment: Minimum inhibitory concentration, YAG medium; format: cell-based, Aspergillus terreus
Protocol: as §1

[7] = test system: C. albicans; experiment: Minimum inhibitory concentration, RPMI medium; format: cell-based
Protocol: as §1, with “Assays were also performed in RPMI medium (Roswell Park Memorial Media 1640). To perform MIC tests in this medium, dilutions” for “Spores”, “compounds are prepared in microtitre plates as described above.” for “Aspergillus spp.”, “24-48” for “24”, “The following organisms were tested: […]” for “MICs are recorded as mg/L.”

[8] = test system: C. tropicalis; experiment: Minimum inhibitory concentration, RPMI medium; format: cell-based
Protocol: as §1, with “Assays were also performed in RPMI medium (Roswell Park Memorial Media 1640). To perform MIC tests in this medium, dilutions” for “Spores”, “compounds are prepared in microtitre plates as described above.” for “Aspergillus spp.”, “24-48” for “24”, “The following organisms were tested: […]” for “MICs are recorded as mg/L.”

[9] = test system: C. parapsilosis; experiment: Minimum inhibitory concentration, RPMI medium; format: cell-based
Protocol: as §1, with “Assays were also performed in RPMI medium (Roswell Park Memorial Media 1640). To perform MIC tests in this medium, dilutions” for “Spores”, “compounds are prepared in microtitre plates as described above.” for “Aspergillus spp.”, “24-48” for “24”, “The following organisms were tested: […]” for “MICs are recorded as mg/L.”

Structure (SMILES)	MIC grade, A. FLAVUS, YAG media [1]	MIC grade, A. TERREUS, YAG media [2]	MIC grade, A. NIGER, YAG media [3]	MIC grade, A. FUMIGATUS, YAG media [4]	MIC grade, A. FUMIGATUS 210, YAG media [5]	MIC grade, A. TERREUS 49, YAG media [6]	MIC grade, C. ALBICANS, RPMI media [7]	MIC grade, C. TROPICALIS, RPMI media [8]	MIC grade, C. PARAPSILOSIS, RPMI media [9]
NC1=NN=C(CCCCCN2C(=O)c3ccccc3C2=O)CS1	4 (4: <0.2 mg/L)	4 (4: <0.2 mg/L)	4 (4: <0.2 mg/L)	4 (4: <0.2 mg/L)	4 (4: <0.2 mg/L)	4 (4: <0.2 mg/L)	1 (1: ≥20 mg/L)	1 (1: ≥20 mg/L)	3 (3: 1-5 mg/L)
NC1=NN=C(CCCCc2cc3ccccc3o2)CS1	4 (4: <0.2 mg/L)	4 (4: <0.2 mg/L)	3 (3: 0.2-1 mg/L)	3 (3: 0.2-1 mg/L)	3 (3: 0.2-1 mg/L)	3 (3: 0.2-1 mg/L)	3 (3: 1-5 mg/L)	3 (3: 1-5 mg/L)	4 (4: <1 mg/L)
COCCCCC1=NN=C(N)SC1	3 (3: 0.2-1 mg/L)	3 (3: 0.2-1 mg/L)	3 (3: 0.2-1 mg/L)	3 (3: 0.2-1 mg/L)	4 (4: <0.2 mg/L)	3 (3: 0.2-1 mg/L)	3 (3: 1-5 mg/L)	3 (3: 1-5 mg/L)	4 (4: <1 mg/L)
NC1=NN=C(CCCCCc2ccccn2)CS1	3 (3: 0.2-1 mg/L)	3 (3: 0.2-1 mg/L)	4 (4: <0.2 mg/L)	3 (3: 0.2-1 mg/L)	4 (4: <0.2 mg/L)	4 (4: <0.2 mg/L)	2 (2: 5-20 mg/L)	2 (2: 5-20 mg/L)	3 (3: 1-5 mg/L)
NC1=NN=C(CCCCCOc2ccc(F)cc2)CS1	4 (4: <0.2 mg/L)	4 (4: <0.2 mg/L)	4 (4: <0.2 mg/L)	4 (4: <0.2 mg/L)	4 (4: <0.2 mg/L)	4 (4: <0.2 mg/L)	4 (4: <1 mg/L)	4 (4: <1 mg/L)	4 (4: <1 mg/L)
CN(CCCCCC1=NN=C(N)SC1)c1ccccc1	3 (3: 0.2-1 mg/L)	3 (3: 0.2-1 mg/L)	3 (3: 0.2-1 mg/L)	2 (2: 1-5 mg/L)	2 (2: 1-5 mg/L)	3 (3: 0.2-1 mg/L)	1 (1: ≥20 mg/L)	1 (1: ≥20 mg/L)	2 (2: 5-20 mg/L)
NC1=NN=C(CCCCCOCc2ccccc2)CS1	4 (4: <0.2 mg/L)	3 (3: 0.2-1 mg/L)	3 (3: 0.2-1 mg/L)	4 (4: <0.2 mg/L)	4 (4: <0.2 mg/L)	4 (4: <0.2 mg/L)	3 (3: 1-5 mg/L)	3 (3: 1-5 mg/L)	4 (4: <1 mg/L)
COCCCCCC1=CSC(=N)NN1C	4 (4: <0.2 mg/L)	3 (3: 0.2-1 mg/L)	3 (3: 0.2-1 mg/L)	3 (3: 0.2-1 mg/L)	4 (4: <0.2 mg/L)	4 (4: <0.2 mg/L)	4 (4: <1 mg/L)	3 (3: 1-5 mg/L)	4 (4: <1 mg/L)
COCCCCCCC1=NN=C(N)SC1	4 (4: <0.2 mg/L)	4 (4: <0.2 mg/L)	4 (4: <0.2 mg/L)	4 (4: <0.2 mg/L)	4 (4: <0.2 mg/L)	4 (4: <0.2 mg/L)	4 (4: <1 mg/L)	3 (3: 1-5 mg/L)	4 (4: <1 mg/L)
COCCCCCCCC1=NN=C(N)SC1	4 (4: <0.2 mg/L)	4 (4: <0.2 mg/L)	4 (4: <0.2 mg/L)	4 (4: <0.2 mg/L)	4 (4: <0.2 mg/L)	4 (4: <0.2 mg/L)	4 (4: <1 mg/L)	4 (4: <1 mg/L)	4 (4: <1 mg/L)
NC1=NN=C(CCCCCCCOc2ccccc2)CS1	4 (4: <0.2 mg/L)	4 (4: <0.2 mg/L)	4 (4: <0.2 mg/L)	4 (4: <0.2 mg/L)	3 (3: 0.2-1 mg/L)	4 (4: <0.2 mg/L)	3 (3: 1-5 mg/L)	3 (3: 1-5 mg/L)	4 (4: <1 mg/L)
CCCCC/C=C/C1=NN=C(N)SC1	2 (2: 1-5 mg/L)	2 (2: 1-5 mg/L)	2 (2: 1-5 mg/L)	2 (2: 1-5 mg/L)	2 (2: 1-5 mg/L)	2 (2: 1-5 mg/L)	2 (2: 5-20 mg/L)	1 (1: ≥20 mg/L)	2 (2: 5-20 mg/L)
NC1=NN=C(CCCCCC(=O)O)CS1	2 (2: 1-5 mg/L)	2 (2: 1-5 mg/L)	2 (2: 1-5 mg/L)	2 (2: 1-5 mg/L)	2 (2: 1-5 mg/L)	2 (2: 1-5 mg/L)	1 (1: ≥20 mg/L)	1 (1: ≥20 mg/L)	1 (1: ≥20 mg/L)
CCCCOCCC1=CNN=C(N)S1	2 (2: 1-5 mg/L)	2 (2: 1-5 mg/L)	1 (1: ≥5 mg/L)	2 (2: 1-5 mg/L)	2 (2: 1-5 mg/L)	2 (2: 1-5 mg/L)	1 (1: ≥20 mg/L)	1 (1: ≥20 mg/L)	1 (1: ≥20 mg/L)
CCOC(=O)CCCCCC1=NN=C(N)SC1	4 (4: <0.2 mg/L)	4 (4: <0.2 mg/L)	4 (4: <0.2 mg/L)	3 (3: 0.2-1 mg/L)	4 (4: <0.2 mg/L)	4 (4: <0.2 mg/L)	4 (4: <1 mg/L)	3 (3: 1-5 mg/L)	4 (4: <1 mg/L)
CC(C)OC(=O)CC1=NN=C(N)SC1							1 (1: ≥20 mg/L)	1 (1: ≥20 mg/L)	2 (2: 5-20 mg/L)
